The results in this text go back to US4473583A, “Compositions containing certain derivatives of 4-phenyl-4-oxobuten-2-oic acid and methods of treatment using them” (Roussel UCLAF, priority 1981, dated 1984).

In one data set the test system is stomach ulcers. The data set is described as follows: anti-ulcer activity, stress ulcer (stress and cold). The format is in vivo. Conditions: female rats, stress and cold (8° C., two hours), 10 mg/kg through an esophageal tube, 2 hours before stress. How it is done:
(2) Determination of the anti-ulcer activity Stress Ulcer
The technique consists of inducing stomach ulcers by stress in rats (stress and cold). The technique used is described by E. C. SENAY and R. J. LEVINE, Proc. Soc. Exp. Biol. 124, 1221 (1967).
Female rats of 150 g (5 animals per lot) were used which has been fasting for 48 hours with water ad libitum and glucose solution for 8 hours. Through an esophageal tube, the animals received a test compound, or a solution of 0.5% carboxy methyl cellulose in the case of the control animals. Two hours later, the animals were bundled in a jacket of netting. Their paws were bound and the entire unit was placed in a refrigerator at 8° C. for two hours. The rats were freed and killed by ether.
Their stomachs were removed, opened along the greater curvature and examined with a binocular magnifier. The seriousness of the lesions was graded from 1 to 3 for each stomach.
For each lot of rats, the average intensity of the ulcerations was calculated. The degree of ulceration for test animals was compared with the control animals for each lot.

The next data set in a line: acute toxicity (LD50). Particulars: mouse, in vivo; mice, oral. How it is done: (3) Determination of the Acute Toxicity
The LD50 was evaluated after the administration of the products orally to mice.

Data set [1] relates to total acidity of the gastric secretions. The data set is described as follows: anti-gastric secretion activity (pylorus ligation, Shay technique). It counts as in vivo. Conditions: male rats, pylorus ligated, 10 mg/kg intraduodenally, 3 hours. How it is done:
(1) Determination of the anti-gastric secretion activity
The technique used is described by H. SHAY et al. in Gastroenterology 5, 43, 1945.
Male rats were used having a weight of about 200 g (10 animals per lot), and were kept without food for 48 hours but allowed a 8% gluclose solution ad libitum. After the rats were slightly anesthetized with ether, the pylorus of each was ligated. After the end of the operation, the product to be tested in different doses or, in the case of the control animals a solution of 0.5% carboxymethyl cellulose, was administered intraduodenally, after which the abdominal incision sutured.
Three hours later, the animals were sacrified and their stomachs removed after ligating the esophagus. The gastric juice was removed and centrifuged. The volume of gastric juice obtained was then determined and the total acidity of the gastric juice was obtained by titrating a 100 μl sample of gastric juice to a pH of 7 by means of 1/10 N sodium hydroxide solution.
The percentages of the variation of the total acidity of the gastric secretions, between test animals and control animals were calculated and are set forth in the table appearing below.

With `O=C(O)/C=C\C(=O)c1ccccc1` [Example 3, (Z) 4-phenyl-4-oxobuten-2-oic acid], the “Anti-ulcer activity: Ulceration (% variation as compared with the controls)” value in the data set with stomach ulcers is -93%. In addition, in the data set “acute toxicity (LD50)”, the LD50 (as a rule, the dose at which mortality reaches 50%) came to 370 mg/kg. Besides, the “Anti-secretion activity: Acid Concentration (% variation as compared with the controls)” value in data set [1] is -81%.

With `O=C(O)/C=C/C(=O)c1ccccc1` [Example 1, (E) 4-phenyl-4-oxobuten-2-oic acid], the “Anti-ulcer activity: Ulceration (% variation as compared with the controls)” value in the data set on stomach ulcers is reported as -54%. For the same molecule, in “acute toxicity (LD50)”, the LD50 is 250 mg/kg. Further, in data set [1], the “Anti-secretion activity: Acid Concentration (% variation as compared with the controls)” value is listed as -66%.

As to `Cc1ccc(C(=O)C=CC(=O)O)cc1` [Example 2, 4-tolyl-4-oxobuten-2-oic acid], the “Anti-ulcer activity: Ulceration (% variation as compared with the controls)” value with stomach ulcers was -39%. In addition, the LD50 in “acute toxicity (LD50)” is 250 mg/kg. For the same molecule, the “Anti-secretion activity: Acid Concentration (% variation as compared with the controls)” value in data set [1] is given as -61%.
